Ends that are not written are not given here.
Assays:
[1] = system: primary rat in vitro BBB model (primary rat endothelial cells co-cultured with primary rat glial cells); settings: for permeability coefficient (Pe) through in vitro BBB: pH 7.4
Method: (§1) The permeability of peptides was assessed using a primary rat in vitro BBB model. […] Transendothelial electrical resistance (TEER) measurements were used to measure the resistance of tight junctions in our BBB model. For our experiments, we used only inserts with the TEER value ≥320 ± 20 Ώ cm^−2 that corresponded to an intact in vitro BBB model. Alternatively, the integrity of the in vitro rat BBB model was assessed by measuring the permeability of the paracellular compound Lucifer Yellow (LY). Lucifer Yellow was added to the well with the peptides.
(§2) To test the permeability of selected peptides across in vitro BBB model, peptide transport to the abluminal compartment was quantified by ultra-high-performance liquid chromatography/mass spectrometry (UHPLC–MS/MS) method.
(§3) As a negative control, we performed the permeability experiments with N–C reversed sequence peptides: [sequence] and [sequence].
(§4) To test the effect of temperature on the transport of peptides across BBB, endothelial cells were incubated with peptides at 4°C to reduce cell metabolism which slows down endocytosis.
(§5) Briefly, 4 Sprague–Dawley rats (200–250 g, 6 months old) were euthanized, and the whole brains were removed. Under sterile conditions, the brainstem and cerebellum were dissected, and the midbrain, white matter, and choroid plexus were removed. The remaining cortical tissue was cleaned from meninges on dry Whatman paper. The tissue was homogenized on ice in DMEM-F12 (PAA laboratories GmbH, Germany). The brain homogenate was centrifuged at 800× g for 10 min at 4 °C. The supernatant was aspirated, and the pellet was resuspended in pre-warmed digestion mix containing collagenase/dispase (Roche Diagnostics, Indianapolis, IN, USA) and DNase I (Sigma–Aldrich, St. Louis, MO, USA). The tissue was incubated with a prepared digestion mix at 37 °C for 30 min with gentle shaking. Digested tissue was centrifuged at 800× g for 10 min at 4 °C, and the pellet was resuspended in 20% bovine serum albumin (BSA, Sigma–Aldrich, St. Louis, MO). The tissue was centrifuged at 1500× g for 15 min at 4 °C to obtain pellet containing microvessels with a fraction of myelin and BSA on the top, which was centrifuged again. The microvessels were pooled and resuspended in pre-warmed digestion mix and digested for 15 min at 37 °C. The microvessels pellet was again centrifuged at 800× g for 10 min at 4 °C and washed with culture medium containing the serum. The microvessels were cultured in DMEM-F12 medium (PAA Laboratories GmbH, Germany) containing 15% plasma-derived serum (PDS) (First Link, UK), 2 mM L-glutamine (GE Healthcare, UK), BME vitamins (Sigma–Aldrich, St. Louis, MO), heparin (Sigma–Aldrich, St. Louis, MO) and 3 µM puromycine (Sigma–Aldrich, St. Louis, MO). After 7 days, cells were seeded on the upper chamber (apical compartment) of Transwell insert with a 0.4 µm pore size (Becton Dickinson, New Jersey, USA) pre-coated with 10 µg/cm^2 collagen type IV (Sigma–Aldrich, St. Louis, MO) and 5 µg/cm^2 fibronectin (Sigma–Aldrich, St. Louis, MO).

[2] = system: primary rat in vitro BBB model; experiment: Permeability of endothelium to Lucifer Yellow (BBB integrity); format: in vitro ADME; settings: 10 µM Lucifer Yellow apical, added with the peptides; Ringer-HEPES pH 7.4; 37 °C; 5-60 min; fluorescence 428/536 nm
Method: All incubations were performed at 37 °C.

[3] = in vitro; settings: Sprague-Dawley, rat, pH 7.4
Method: as §1, §2, §3, §4, §5

Substance	permeability at 4 °C (37 °C: 100%) [1] [%]	permeability reduced at 4 °C [1] [%]	permeability coefficient (Pe) through in vitro BBB [1] [×10⁻⁶ cm/s]	endothelial permeability coefficient (Pe) of LY [2]	Papp A→B [3] [×10⁻⁶ cm/s]
GLHTSATNLYLH	79	20.5	0.33	–	–
HLYLNTASTHLG	–	–	0.75	–	–
Lucifer Yellow	–	–	–	around 11 × 10^−6 cm/s	–
VAARTGEIYVPW	69	30.5	–	–	1.5
WPVYIEGTRAAV	–	–	–	–	0.5
